{
  "source": "patent US20140127228A1",
  "about": "(INDIANA UNIVERSITY SCHOOL OF MEDICINE, priority 2012, published 2014)",
  "key": {"1205Lu melanoma cells [1]": {"tested_on": "1205Lu melanoma cells", "assay": "melanoma bone metastasis in nude mice inoculated with 1205Lu melanoma cells", "assay_type": "in vivo, mouse", "source_text": "Halofuginone (Hfg) is a synthetic derivative of the plant alkaloid febrifugine, a traditional Chinese herbal medicine. Hfg increases expression of Smad7, an intracellular inhibitor of TGF-beta signaling. […] Hfg has been widely used as a veterinary agent with an excellent safety profile.\n(§1) TGFbeta derived from bone fuels melanoma bone metastasis by inducing tumor secretion of pro-metastatic factors that act on bone cells to change the skeletal microenvironment. […] Hfg is active orally and by intraperitoneal injection, and it has completed Phase I clinical trials in cancer patients. It suppresses the phosphorylation and activation of Smad2 and Smad3 by inducting of Smad7. Overexpression of inhibitory Smad7 has been associated with a reduction on invasive capacity in vitro and anchorage-independent growth, and delays subcutaneous tumor growth in nude mice. The present inventors have shown that Smad7 overexpression decreased melanoma bone metastasis, thus is useful for treating and/or preventing muscle weakness and atrophy as well as other muscle related side effects in cancer patients."}, "1205Lu melanoma cells [2]": {"tested_on": "1205Lu melanoma cells", "settings": "mouse, in vivo; cited from earlier work"}, "human melanoma cells": {"tested_on": "human melanoma cells", "assay": "Hfg treatment of human melanoma cells", "assay_type": "cell-based", "source_text": "as §1"}, "[3]": {"settings": "models of muscular dystrophy; cited from earlier work"}, "RyR1": {"tested_on": "RyR1", "assay": "RyR1 oxidation, nitrosylation and calstabin 1 depletion in EDL (immunoprecipitation/immunoblot)", "assay_type": "in vivo, mouse", "settings": "mice with PC-3 prostate cancer metastatic to bone", "source_text": "(§2) In embodiment A is shown that body weight is decreased in nude mice inoculated with PC-3 human prostate cancer cells and that osteolytic lesions are present in the tibia and histology of the femur, as shown in X-ray images. In embodiments B and C are shown decreased skeletal muscle cross-sectional area in tumor-bearing mice determined by Micro-CT as described herein. In embodiments D and E are shown decreased body weight (D) and decreased Grip strength (E) in PC-3 tumor bearing mice. […] In embodiment J is shown that RyR1 is oxidized and there is decreased calstabin 1 in the RyR complex from, skeletal muscle (EDL) from mice with metastatic prostate cancer. […] All immunoblots were developed and quantified with the Odyssey system (LI-COR, Inc., Lincoln, Nebr.) using IR labeled anti-mouse and anti-Rabbit IgG (1:10,000 dilution) secondary antibodies. […] Quantification of immunoblots showing the relative nitrotyrosine/SERCA for each group of EDLs tested. *p<0.01 compared to non-cancer controls as analyzed by ANOVA. […]\nQuantification of RyR1 skeletal channel nitrosylation, oxidation and phosphorylation by protein kinase A (PKA) are performed as described (Bellinger et al., 2009; Bellinger et al., 2008b).\nQuantification of depletion of the channel stabilizing subunit calstabin 1 (FKBP12) from skeletal RyR1 by immunoprecipitation techniques are performed as described (Marx et al., 2000). […]"}, "mouse mammary carcinomas": {"tested_on": "mouse mammary carcinomas", "settings": "cited from earlier work"}, "[4]": {"tested_on": "LuCaP 23.1 human prostate cancer osteoblastic xenograft", "assay": "LuCaP 23.1 osteoblastic prostate cancer xenograft in tibia of nude mice", "assay_type": "in vivo, mouse", "source_text": "(§3) These experiments utilize two murine models of prostate cancer bone metastases induced by PC-3 (osteolytic and cachectic; FIGS. 4A-K) or LuCAP23.1 (osteoblastic and not cachectic; FIGS. 5A-B).\n(§4) For all mouse experiments, N=15 for each group of mice for tumors inoculated in the left cardiac ventricle (PC-3) or intratibially (LuCAP23.1) based on power analysis detailed below. Male nude mice are housed in laminar flow isolated hoods with water supplemented with vitamin K and autoclaved mouse chow provided ad libitum. Cells are introduced into mice at 4 wks of age. Animals are anesthetized with ketamine/xylazine and positioned ventral side up.\nFour-week old, male nude mice were inoculated into the tibia with LuCaP 23.1 human prostate cancer osteoblastic xenograft (n=14-15/group)."}, "SERCA": {"tested_on": "SERCA", "assay": "SERCA oxidation in EDL muscle lysates (immunoprecipitation/immunoblot)", "assay_type": "in vivo, mouse", "settings": "prostate cancer mice", "source_text": "In embodiment A is shown that body weight is decreased in nude mice inoculated with PC-3 human prostate cancer cells and that osteolytic lesions are present in the tibia and histology of the femur, as shown in X-ray images. In embodiments B and C are shown decreased skeletal muscle cross-sectional area in tumor-bearing mice determined by Micro-CT as described herein. In embodiments D and E are shown decreased body weight (D) and decreased Grip strength (E) in PC-3 tumor bearing mice. […] In embodiment J is shown that RyR1 is oxidized and there is decreased calstabin 1 in the RyR complex from, skeletal muscle (EDL) from mice with metastatic prostate cancer. RyR1 was immunoprecipitated from 250 μg of EDL homogenate using an anti-RyR antibody (4 μg 5029 Ab), and the immunoprecipitates were separated on SDS-PAGE gels (6% for RyR, 15% for Calstabin). All immunoblots were developed and quantified with the Odyssey system (LI-COR, Inc., Lincoln, Nebr.) using IR labeled anti-mouse and anti-Rabbit IgG (1:10,000 dilution) secondary antibodies. Immunoblots developed using anti-RyR (clone 34C, 1:5,000), anti-Cys-NO (1:1000, Sigma, St. Louis. MO), anti-DNP (to determine RyR1 oxidation. 1:250), and anticalstabin (1:2500). […] Quantification of immunoblots showing the relative nitrotyrosine/SERCA for each group of EDLs tested. *p<0.01 compared to non-cancer controls as analyzed by ANOVA. […]"}, "[5]": {"tested_on": "EDL muscle of mice with PC-3 prostate cancer bone metastases", "assay": "EDL muscle specific force production in mice with PC-3 prostate cancer bone metastases", "assay_type": "in vivo, mouse", "settings": "hypogonadal mice with PC-3 prostate cancer metastatic to bone", "source_text": "as §2\nExtensor digitorum longus (EDL) muscles are dissected from the hind limbs using micro dissection scissors and forceps. […] To quantify the specific force, the absolute force is normalized to the muscle cross-sectional area, calculated as the muscle weight divided by the length and a muscle density constant of […] as previously described (Yamada et al., 2009)."}, "PC-3 bone metastases": {"tested_on": "PC-3 bone metastases", "assay": "PC-3 prostate cancer bone metastases in mice", "assay_type": "in vivo, mouse", "settings": "50 mg/kg starting 2 days prior to inoculation", "source_text": "as §3, §4\nMultiple modalities of bone imaging including X-ray and μCT are used to longitudinally monitor the bone lesions and confirmed by histology and quantitative histomorphometry as previously described (Dunn et al., 2009; Guise et al., 1996b; Yin et al., 1999). Muscle mass are followed serially in vivo using the Piximus II system (Wiren et al., 2011) and microCT (Manske et al., 2011)."}, "[6]": {"settings": "patients with prostate cancer bone metastases; cited from earlier work"}, "[7]": {"settings": "50 or 150 mg/kg/day po from 12 weeks post tumor inoculation"}},
  "note": "Entries after “also recorded” stand apart in the source; their conditions may differ.",
  "data": [
    {"molecule": "O=C(CC1NCCCC1O)Cn1cnc2cc(Br)c(Cl)cc2c1=O", "note": "(stereo not shown) [Halofuginone]", "values": [
      {"measurement": "osteolysis assessed by radiography", "setting": "1205Lu melanoma cells [1]; mice with established bone metastasis, vs placebo", "value": "significantly less osteolysis"},
      {"measurement": "melanoma metastasis to the brain", "setting": "1205Lu melanoma cells [1]; mouse, in vivo", "value": "reduce melanoma metastasis to the brain"},
      {"measurement": "bone metastasis", "setting": "1205Lu melanoma cells [1]; preventive protocol, nude mice inoculated with 1205Lu melanoma cells", "value": "inhibited bone metastasis"},
      {"measurement": "development and progression of bone metastasis caused by melanoma cells", "setting": "1205Lu melanoma cells [2]", "value": "decreases development and progression of bone metastasis"},
      {"measurement": "TGFbeta-induced SMAD-driven transcription", "setting": "human melanoma cells", "value": "inhibited"},
      {"measurement": "cell apoptosis", "setting": "human melanoma cells", "value": "increased"},
      {"measurement": "cell proliferation", "setting": "human melanoma cells", "value": "inhibited"},
      {"measurement": "expression of TGFbeta target genes (PTHrP, CTGF, CXCR4, IL11)", "setting": "human melanoma cells", "value": "reducing expression"},
      {"measurement": "phosphorylation of SMAD proteins in response to TGFbeta", "setting": "human melanoma cells", "value": "inhibited"},
      {"measurement": "muscle function", "setting": "[3]", "value": "improve muscle function"}
    ]},
    {"molecule": "Fc1ccc(Cl)cc1-c1nc(Nc2ccncc2)c2nccnc2n1", "note": "[SD-208]", "values": [
      {"measurement": "oxidation/nitrosylation/calstabin 1 depletion of skeletal muscle RyR1", "setting": "RyR1", "value": "prevented oxidation/nitrosylation/calstabin 1 depletion from RyR1; also recorded: prevented oxidation of RyR1"},
      {"measurement": "tumor growth in vivo", "setting": "mouse mammary carcinomas", "value": "inhibit"},
      {"measurement": "bone formation", "setting": "[4]; [7]", "value": "does not increase"},
      {"measurement": "tumor growth", "setting": "[4]; [7]", "value": "does not increase"},
      {"measurement": "LuCAP23.1 bone metastases", "setting": "[4]; mouse, in vivo", "value": "not effective"},
      {"measurement": "oxidation of SERCA", "setting": "SERCA", "value": "inhibited oxidation of SERCA"},
      {"measurement": "muscle (EDL) specific force production", "setting": "[5]", "value": "improved muscle specific force production"},
      {"measurement": "PC-3 bone metastases (X-ray, osteolytic lesion area, survival)", "setting": "PC-3 bone metastases", "value": "highly effective; also recorded: prevents PC-3 bone metastases"}
    ]},
    {"molecule": "denosumab: inhibitor of bone resorption", "values": [
      {"measurement": "skeletal morbidity", "setting": "[6]", "value": "reduce skeletal morbidity"}
    ]}
  ]
}
